Consider one molecule from article PMC11371747, “The role of l-leucovorin uptake and metabolism in the modulation of 5-fluorouracil efficacy and antifolate toxicity” (Frontiers in Pharmacology, 2024).

Where two headings read alike, the source gives them in different places.

For one experiment, the system named is CHO/C5 cells. Nature of the experiment: Growth inhibition, SRB assay, CHO/C5 (RFC-deficient). The format is cell-based, Chinese hamster. The method, then:
(§1) Briefly, cells were seeded in triplicate in 96-well plates at their pre-established optimal density (CHO cells: 2,500 cells/100 μL; WiDr and HT29: 3,500 cells/100 μL; WiDr-LF/LV, LS174T: 5,000 cells/100 μL; CaCo2, CaCo2-LF/LV, H292, H28 and MSTO-211H: 6,000 cells/100 μL; H460, SW948 and SW1398: 7,000 cells/100 μL) and were allowed to attach for ∼ 24 h at 37°C in 5% CO2 and 100% humidified incubator. Thereafter, 100 μL of drug dilution without LV, or with 5 μM l-LV/5 μM d-LV/10 μM dL-LV (or any LV alone) were added. Cells were allowed to grow for 72 h at 37°C in 5% CO2 and 100% humidity. The t = 0 h control plate consisted of cells plated on the same day as the other cells, but after 24 h at 37°C in 5% CO2 and 100% humidity, only 100 μL medium was added and the cells were fixed immediately with 50% trichloroacetic acid (TCA) in milliQ water (25 μL per well) and put at 4°C for at least 1 h. Plates were washed five times with water and dried. Cells were stained with the SRB protein dye (0.4% (w/v) in 1% acetic acid. Excess dye was washed away four times with 1% acetic acid and plates were dried again. 200 μL of Tris (10 mM Tris (hydroxymethyl)-aminomethane in MQ) was added and optical density (OD) was read at 492 nm after mixing 2–3 min on a plate shaker.

The test system of the next experiment is MSTO-211H cells. In words: Growth inhibition, SRB assay, MSTO-211H (MPM). To be noted: for IC50: SRB, read-out: IC50, 72 h drug exposure. The format is cell-based, human. As for the experimental part: as §1
(Sulforhodamine B stains cellular protein and so reports cell mass.)

In experiment [1] the target is T1, thymidylate synthase (TS) (Homo sapiens, UniProt P04818).
T1 construct: The principle of this assay is the measurement of TS enzymatic activity in intact cells; endogenous in cells; host or cells: colon cancer cell lines (WiDr, WiDr-LF, SW1398, LS174T and others)
Nature of the experiment: TS in situ inhibition assay (TSIA) in colon cancer cells. To be noted: WiDr, 4 h, antifolate alone. The format is cell-based. The source says:
The principle of this assay is the measurement of TS enzymatic activity in intact cells. Intact cells will readily internalize radioactively labelled [5-^3H]-deoxycytidine, which will be rapidly converted by deoxycytidine kinase (dCK) to [5-^3H]-dCMP and subsequently deaminated to [5-^3H]-dUMP, which will then serve as a substrate in the TS catalysed reaction to dTMP and ^3H2O; the quantity of ^3H2O formed over time is a measure of intracellular TS activity. […] This is because dCK has a higher, cell cycle independent activity than thymidine kinase 1, which is a cell cycle dependent enzyme. For this purpose, cancer cells were cultured in six wells plates at 2.5 × 10^5 cells/2 mL/well for 24 h. Thereafter, cells were exposed to drugs with or without the LV formulations at the indicated concentrations for 4 h. 2 h before the end of the incubation period [5-^3H]-2′-deoxycytidine (final concentration 1 µM) was added to the cells. […] In most cell lines we quantified dCK activity and dCK mRNA levels.

The test system of another experiment is AA8 cells. Nature of the experiment: Growth inhibition, SRB assay, AA8 (parental CHO). The class given is cell-based, Chinese hamster. To be noted: for IC50: AA8 parental CHO. The method, then: as §1
Another experiment deals with H460 cells. In words: Growth inhibition, SRB assay, H460 (NSCLC). The class given is cell-based, human. To be noted: for IC50: H460, SRB, read-out: IC50, 72 h drug exposure. The method, then:
as §1

Setting [2] is: Cricetulus griseus, antifolate alone.

T1 sequence (P04818 2-313 limits assumed): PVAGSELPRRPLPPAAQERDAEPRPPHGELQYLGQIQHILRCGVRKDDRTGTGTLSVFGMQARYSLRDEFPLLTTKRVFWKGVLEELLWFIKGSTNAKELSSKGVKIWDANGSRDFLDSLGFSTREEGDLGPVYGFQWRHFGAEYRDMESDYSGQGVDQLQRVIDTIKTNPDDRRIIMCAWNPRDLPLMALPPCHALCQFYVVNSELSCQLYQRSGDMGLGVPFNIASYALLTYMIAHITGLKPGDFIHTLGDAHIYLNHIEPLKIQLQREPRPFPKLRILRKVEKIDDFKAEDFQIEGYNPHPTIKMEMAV

Broadly, the IC50 is the concentration needed to halve the response being measured. With `C#CCC(Cc1cnc2nc(N)nc(N)c2n1)c1ccc(C(=O)N[C@@H](CCC(=O)O)C(=O)O)cc1` (stereo partly drawn) [PLX, pralatrexate], the IC50 amounted to 9500 nM in the experiment on CHO/C5 cells (setting [2]); 48300 nM with CHO/C5 cells (antifolate + 5 µM l-LV); 2.4 ± 0.1 nM in the experiment with MSTO-211H cells (Homo sapiens, 72 h, antifolate alone); 3340 nM with MSTO-211H cells (antifolate + 5 µM l-LV); 17.7 ± 4.7 nM in experiment [1]; 3670 nM with AA8 cells (antifolate + 5 µM l-LV). Further, the IC50 in the experiment on AA8 cells (setting [2]) came to 3.8 nM; in the experiment on H460 cells (antifolate + 5 µM l-LV), 1450 nM; with H460 cells (Homo sapiens, NCI-H460, 72 h, antifolate alone), 2.8 ± 0.1 nM. Besides, the “Relative protection by 5 µM l-LV” value in the experiment with MSTO-211H cells (ratio IC50 antifolate + LV / IC50 antifolate) is on record as 1,601 ± 275; with H460 cells (H460, ratio IC50 antifolate + LV / IC50 antifolate), 502 ± 21. For the same molecule, in the experiment on AA8 cells (AA8 cells, 5 µM l-LV), the “Protection by l-LV, increase of the IC50 value” is on record as 965 fold.
